Source: publication PMC3195871 (Biochemical and biophysical research communications, 2011)

Molecular target: T1, ArathEULS3 (Arabidopsis thaliana, UniProt Q945P1)
T1 sequence (Q945P1 2-317): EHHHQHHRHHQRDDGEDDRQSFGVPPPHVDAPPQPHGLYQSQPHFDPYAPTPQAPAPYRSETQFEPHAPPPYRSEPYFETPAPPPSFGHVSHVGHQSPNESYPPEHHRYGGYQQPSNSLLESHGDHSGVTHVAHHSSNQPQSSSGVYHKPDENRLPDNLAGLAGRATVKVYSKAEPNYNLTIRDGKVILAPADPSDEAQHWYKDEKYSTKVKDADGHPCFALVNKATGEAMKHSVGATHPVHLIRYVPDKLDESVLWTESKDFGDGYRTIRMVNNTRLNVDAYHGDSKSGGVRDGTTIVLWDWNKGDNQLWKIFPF
Assay: glycan microarray v4.[…], fluorescence
Type: binding
Settings: glycan immobilised through spacer; relative to glycan with highest signal

**Q.** With “Galβ1-4GlcNAcβ1-4(Galβ1-4GlcNAcβ1-2)Manα1-3(GlcNAcβ1-4)(Galβ1-4GlcNAcβ1-6(Galβ1-4-GlcNAcβ1-2)Manα1-6)Manβ1-4GlcNAcβ1-4GlcNAc-Sp21” as the molecule, how does the “%RFU ^* / ArathEUL” value read?
**A.** 67,5%

**Q.** Which “%RFU ^* / ArathEUL” value does the source give for “Fucα1-2Galβ1-4(Fucα1-3)GlcNAcβ1-2Manα1-6(Fucα1-2Galβ1-4(Fucα1-3)GlcNAcβ1-2Manα1-3)Manβ1-4GlcNAcβ1-4(Fucα1-6)GlcNAcβ-6AA” here?
**A.** 18,9%

**Q.** “Galβ1-4(Fucα1-3)GlcNAcβ1-4Galβ1-4(Fucα1-3)GlcNAcβ1-4Galβ1-4(Fucα1-3)GlcNAcβ-Sp0” was tested. Which “%RFU ^* / ArathEUL” value did it give?
**A.** 22,7%

**Q.** “Fucα1-2Galβ1-4(Fucα1-3)GlcNAcβ1-3GalNAcα-Sp14” was tested. Which “%RFU ^* / ArathEUL” value did it give?
**A.** 100,0%

**Q.** How did the “%RFU ^* / ArathEUL” value turn out when `CC(=O)N[C@H]1[C@H](O[C@H]2[C@@H](O)[C@@H](CO)O[C@H](OCCCN)[C@@H]2NC(C)=O)O[C@H](CO)[C@@H](O)[C@@H]1O` [GlcNAcβ1-3GalNAcα-Sp8] was run?
**A.** 37,0%

**Q.** “GalNAcα1-3(Fucα1-2)Galβ1-4(Fucα1-3)GlcNAcβ1-3GalNAc-Sp14” was tested. Which “%RFU ^* / ArathEUL” value did it give?
**A.** 73,6%

**Q.** How did the “%RFU ^* / ArathEUL” value turn out when “Galβ1-4GlcNAcβ1-2Manα1-3(Galβ1-4GlcNAcβ1-2Manα1-6)Manβ1-4GlcNAcβ1-4GlcNAcβ-Sp12” was run?
**A.** 9,1%

**Q.** For Galβ1-4(Fucα1-3)GlcNAcβ1-6GalNAc-Sp14, which “%RFU ^* / ArathEUL” value is on record?
**A.** 8,4%

**Q.** For “Neu5Acα2-3-Galβ1-3(Galβ1-4(Fucα1-3)GlcNAcβ1-6)GalNAc-Sp14”, which “%RFU ^* / ArathEUL” value is on record?
**A.** 14,8%

**Q.** Which “%RFU ^* / ArathEUL” value does the source give for “Galα1-3Galβ1-3GlcNAcβ1-2Manα1-3(Galα1-3Galβ1-3GlcNAcβ1-2Manα1-6)Manβ1-4GlcNAcβ1-4GlcNAc-Sp19” here?
**A.** 46,6%

**Q.** With `CC(=O)N[C@H]1[C@H](OCCOCCOCCOCCOCCOCCN)O[C@H](CO)[C@@H](O[C@@H]2O[C@H](CO)[C@H](O)[C@H](O)[C@H]2O)[C@@H]1O` [Galβ1-4GlcNAcβ-(OCH2CH2)6NH2] as the molecule, how does the “%RFU ^* / ArathEUL” value read?
**A.** 15,6%

**Q.** How did the “%RFU ^* / ArathEUL” value turn out when `CC(=O)N[C@H]1[C@H](O[C@H]2[C@@H](O)[C@@H](CO)O[C@@H](O[C@H]3[C@H](O[C@@H]4O[C@@H](C)[C@@H](O)[C@@H](O)[C@@H]4O)[C@@H](NC(C)=O)[C@H](O[C@H]4[C@@H](O)[C@@H](CO)O[C@@H](O[C@H]5[C@H](O[C@@H]6O[C@@H](C)[C@@H](O)[C@@H](O)[C@@H]6O)[C@@H](NC(C)=O)[C@H](OCCN)O[C@@H]5CO)[C@@H]4O)O[C@@H]3CO)[C@@H]2O)O[C@H](CO)[C@@H](O[C@@H]2O[C@H](CO)[C@H](O[C@H]3O[C@H](CO)[C@@H](O)[C@H](O)[C@H]3NC(C)=O)[C@H](O)[C@H]2O)[C@@H]1O` [GlcNAcα1-4Galβ1-4GlcNAcβ1-3Galβ1-4(Fucα1-3)GlcNAcβ1-3Galβ1-4(Fucα1-3)GlcNAcβ-Sp0] was run?
**A.** 37,2%

**Q.** How did the “%RFU ^* / ArathEUL” value turn out when `CC(=O)N[C@H]1[C@H](OCCN)O[C@H](CO)[C@@H](O[C@@H]2O[C@H](CO)[C@H](O)[C@H](O[C@]3(C(=O)O)C[C@H](O)[C@@H](NC(C)=O)[C@H]([C@H](O)[C@H](O)CO)O3)[C@H]2O)[C@@H]1O[C@@H]1O[C@@H](C)[C@@H](O)[C@@H](O)[C@@H]1O` [Neu5Acα2-3Galβ1-4(Fucα1-3)GlcNAcβ-Sp0] was run?
**A.** 46,6%
